{"source": "patent US5532267A", "about": "“Amidinonaphthyl furancarboxylate derivatives and acid addition salts therof” (Torii & Co., Ltd., priority 1992, dated 1996)", "key": {"thrombin": {"molecular_target": "thrombin (Homo sapiens, UniProt P00734)", "assay": "anti-thrombin activity, hydrolysis of TAME (tosylarginine methyl ester)", "type": "biochemical", "description": "(§1) The values in Table 1 represent molar concentrations (IC50) of test compounds which inhibit 50% of the activity of each enzyme to hydrolyze TAME (tosylarginine methyl ester). The anti-trypsin, anti-plasmin, anti-kallikrein and anti-thrombin activities were determined according to the method of Muramatsu et al. (J. Biochem. (1965), volume 58, page 214)."}, "plasmin": {"molecular_target": "plasmin (Homo sapiens, UniProt P00747)", "sequence (P00747 581-810 limits assumed, species assumed)": "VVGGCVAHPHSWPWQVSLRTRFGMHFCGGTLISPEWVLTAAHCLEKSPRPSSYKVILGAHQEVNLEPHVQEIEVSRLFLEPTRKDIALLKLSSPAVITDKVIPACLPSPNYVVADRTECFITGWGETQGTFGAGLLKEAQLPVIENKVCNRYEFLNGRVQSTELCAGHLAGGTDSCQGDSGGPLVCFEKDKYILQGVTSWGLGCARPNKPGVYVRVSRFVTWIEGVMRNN", "sequence (P00747 97-580 partner limits assumed, species assumed)": "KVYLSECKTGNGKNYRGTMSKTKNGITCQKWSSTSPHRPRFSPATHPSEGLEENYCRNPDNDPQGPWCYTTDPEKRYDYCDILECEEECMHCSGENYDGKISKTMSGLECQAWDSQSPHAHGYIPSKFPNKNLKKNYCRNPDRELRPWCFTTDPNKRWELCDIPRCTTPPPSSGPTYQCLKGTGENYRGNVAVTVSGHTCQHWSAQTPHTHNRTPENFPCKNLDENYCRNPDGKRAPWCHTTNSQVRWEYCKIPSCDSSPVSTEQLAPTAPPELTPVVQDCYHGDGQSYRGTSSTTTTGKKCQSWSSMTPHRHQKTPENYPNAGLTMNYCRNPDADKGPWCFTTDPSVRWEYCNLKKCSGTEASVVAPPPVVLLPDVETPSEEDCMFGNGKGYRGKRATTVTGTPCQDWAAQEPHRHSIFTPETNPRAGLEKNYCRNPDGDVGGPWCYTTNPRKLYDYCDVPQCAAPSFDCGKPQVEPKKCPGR", "assay": "anti-plasmin activity, hydrolysis of TAME (tosylarginine methyl ester)", "type": "biochemical", "conditions": "hydrolysis of TAME; read-out: Pla: molar concentration inhibiting 50% of enzyme activity (IC50)", "description": "as §1"}, "kallikrein": {"system": "kallikrein", "assay": "anti-kallikrein activity, hydrolysis of TAME (tosylarginine methyl ester)", "type": "biochemical", "description": "as §1"}, "trypsin": {"molecular_target": "T1, trypsin (Bos taurus, UniProt P00760)", "T1 sequence (P00760 24-246)": "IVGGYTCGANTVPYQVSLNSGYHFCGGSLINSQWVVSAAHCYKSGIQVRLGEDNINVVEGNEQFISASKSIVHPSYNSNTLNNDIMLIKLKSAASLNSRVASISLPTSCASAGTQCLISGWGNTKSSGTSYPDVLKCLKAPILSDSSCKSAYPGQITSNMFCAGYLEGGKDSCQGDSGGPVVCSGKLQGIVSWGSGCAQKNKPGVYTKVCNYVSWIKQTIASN", "assay": "anti-trypsin activity, hydrolysis of TAME (tosylarginine methyl ester)", "type": "biochemical"}, "Masugi's nephritis [1]": {"system": "Masugi's nephritis", "assay": "Effect of TO-195 on Masugi's nephritis", "type": "in vivo, rat", "conditions": "oral"}, "[2]": {"assay": "monkey subacute toxicity test", "type": "in vivo", "conditions": "oral", "description": "The compound of Example 22 was tested in three groups (five monkeys per group) of monkeys at dosages of (1) 3 mg/kg/day, (2) 30 mg/kg/day, and (3) 300 mg/kg/day; the compound was administered orally (dose volume was 2 ml/kg) by gavage once a day for 13 weeks. Administration was followed by 20 ml sterile water per animal. Control monkeys received only the vehicle (sterile water for injection, U.S.P.) on the same regimen as the experimental groups. All doses were administered using a 18 French rubber catheter attached to a syringe."}, "[3]": {"assay": "Toxicity in humans (Phase I study)", "type": "in vivo, human", "conditions": "healthy male adult volunteers, capsules, 5 to 400 mg/man", "description": "Toxicity in humans (Phase I study): This test was for confirmation of the safety of the drug (which was administered to healthy male adult volunteers). Taking into consideration the above toxicity tests, the compound of Example 22 was prepared in the form of capsules containing the compound in an increasing amount (from 5 mg/man to 400 mg/man (body weight 50-60 kg))."}, "Masugi's nephritis [4]": {"system": "Masugi's nephritis", "assay": "Effectiveness in treating Masugi's nephritis (experimental glomerulonephritis), protein in urine", "type": "in vivo, rat", "conditions": "po, 30 mg/kg", "description": "[…] […] As the index to effectiveness, the protein concentration in urine was determined. That is, when inflammation develops in the kidney, it causes damage to renal tubules, etc., and a resultant increase in protein concentration in urine."}}}
{"smiles": "Cl.N=C(N)c1ccc2cc(OC(=O)c3ccc(CNC(=O)CCCC(=O)O)o3)ccc2c1", "note": "[Example 22, 6-Amidino-2-naphthyl 5-(4-carboxybutyrylaminomethyl)furan-2-carboxylate hydrochloride]", "values": [{"measurement": "thrombin inhibition (in words)", "setting": "thrombin", "result": "inhibitor"}, {"measurement": "IC50", "setting": "thrombin; hydrolysis of TAME, read-out: Thr: molar concentration inhibiting 50% of enzyme activity (IC50)", "result": 3500, "unit": "nM"}, {"measurement": "IC50", "setting": "plasmin", "result": 430, "unit": "nM"}, {"measurement": "kallikrein inhibition (in words)", "setting": "kallikrein", "result": "inhibitor"}, {"measurement": "IC50", "setting": "kallikrein; hydrolysis of TAME, read-out: Kal: molar concentration inhibiting 50% of enzyme activity (IC50)", "result": 470, "unit": "nM"}, {"measurement": "trypsin inhibition (in words)", "setting": "trypsin", "result": "inhibitor"}, {"measurement": "IC50", "setting": "trypsin; hydrolysis of TAME, read-out: Try: molar concentration inhibiting 50% of enzyme activity (IC50)", "result": 430, "unit": "nM"}, {"measurement": "urinary protein excretion (in words)", "setting": "Masugi's nephritis [1]; 3, 10, or 30 mg/kg×2/day, from 2 days before through day 10 after nephrotoxin", "result": "significantly decreased urinary protein excretion"}, {"measurement": "Light microscopic examination of the glomeruli (in words)", "setting": "Masugi's nephritis [1]; 10 and 30 mg/kg×2/day, compared to control group", "result": "significant anti-nephritic effect"}, {"measurement": "urinary protein excretion (in words)", "setting": "Masugi's nephritis [1]; twice a day from day 4 to day 10 after nephrotoxin", "result": "significantly decreased urinary protein excretion"}, {"measurement": "general conditions, biochemical examination, and survival (in words)", "setting": "[2]; 13 weeks, up to 300 mg/kg/day", "result": "no changes were found"}, {"measurement": "toxicity (in words)", "setting": "[2]; three months, even at 300 mg/kg", "result": "no toxicity was recognized"}, {"measurement": "adverse side effects (in words)", "setting": "[3]", "result": "No adverse side effects were found"}, {"measurement": "Protein concentration in urine", "setting": "Masugi's nephritis [4]", "result": "3.0 ± 2.0", "unit": "mg/mL"}]}
